Measured values: US11179372B2, “Isoxazoline solution containing vitamin E for use with sanitized drinking water” (Intervet Inc., priority 2015, dated 2021)

What was measured:
[1] = Residues and withdrawal time in treated birds; type: in vivo; conditions: treated layer birds, oral uptake
[2] = test system: Northern fowl mite (O. sylviarum); assay: Efficacy of Fluralaner in medicated drinking water against Northern fowl mite infestation of laying hens; type: in vivo, Ornithonyssus sylviarum
Description: No vitamin E was present in the concentrated Fluralaner solution used to prepare the medicated drinking water. The effectivity of an oral dosing regimen of Fluralaner was tested by administering medicated drinking water (via gavage) to laying hens, in 2 repeated doses of 0.25, 0.5 or 1.0 mg/kg body weight, administered 7 days apart, and challenging them with infestation by Northern fowl mites, via source birds and natural infestation. The birds were kept in separate pens, at 11 birds per pen. The statistical analysis of results was based on mite count from each bird in the study, using pen as a random factor in the model, and mite counts were performed and recorded for individual birds. Mite vent count reduction of the treated groups compared to the control group was the primary efficacy criterion.

[3] = Prevention of degradation by oxidizing sanitizer (hypochlorite) in medicated drinking water; type: physicochemical
Description: The Fluralaner level was determined using UHPLC. The alpha-tocopherol used was alpha-tocopherol EP (Fluka).
To prepare the test samples, the required amounts of Transcutol and Tween were measured, combined in a beaker at room temperature, and mixed magnetically. Next, when no protector was added, the required amount of Fluralaner was weighed, added, and mixed until complete dissolution, which usually required about 10 minutes, at 70% speed. […] The complete dissolution was verified visually. Next the density of the resulting solution was checked with a Densimeter, at 20° C.
To test the capacity of the different protectors to prevent degradation of Fluralaner in medicated drinking water by an oxidising sanitizer, samples of the pharmaceutical composition as prepared above were diluted to different concentrations, and incubated with different amounts of hypochlorite. Concentrations of Fluralaner in medicated drinking water used were: 1, 5, and 10 μg/ml.
The hypochlorite used was from a 13% sodium hypochlorite solution (Acros Organics), which was prepared into samples with a concentration of hypochlorite of: 0, 0.5, 2, 5, or 10 ppm, wherein 1 ppm equals 20 μM. Samples without hypochlorite served as positive controls. While the dilutions of hypochlorite were made in purified water, one additional sample at 5 ppm hypochlorite was prepared in standard tap water (Angers, France). Control samples were tested at day zero, all others were tested after an incubation for 7 days at 40° C./75% RH.
The concentration of protector in the test sample was dependent of the dilution factor of the concentrated Fluralaner composition applied: 1:10,000, 1:2000, or 1:1000, respectively.

[4] = Accelerated stability testing of pharmaceutical composition comprising a protector; type: physicochemical; conditions: with alpha-tocopherol; up to 8 months; 2-8° C., 30° C./65% RH, 40° C./75% RH, 50° C.
Description: Similar to the experiments described in Example 3 above, where the effect of water quality on Fluralaner-containing medicated drinking water was tested; here samples of the pharmaceutical composition were tested for an effect of the addition of a protector, on their stability during prolonged storage.
To test the long term stability of the pharmaceutical composition with a protector, some samples were stored under conditions of accelerated ageing. Samples of the pharmaceutical composition with or without one of the protectors, were filled out in portions of 7 gram each, in 10 ml glass vials, sealed with rubber stoppers, and stored under different conditions: 2-8° C.; 30° C./65% RH; 40° C./75% RH, and 50° C. […]

[5] = Conc. Fluralaner 1 μg/ml, hypochlorite 0 ppm, T = 0
[6] = Conc. Fluralaner 1 μg/ml, hypochlorite 0 ppm, T = 7 d at 40° C./75% RH
[7] = Conc. Fluralaner 1 μg/ml, hypochlorite 0.5 ppm, T = 7 d at 40° C./75% RH
[8] = Conc. Fluralaner 1 μg/ml, hypochlorite 2 ppm, T = 7 d at 40° C./75% RH
[9] = Conc. Fluralaner 1 μg/ml, hypochlorite 5 ppm (tapw.), T = 7 d at 40° C./75% RH
[10] = Conc. Fluralaner 1 μg/ml, hypochlorite 5 ppm, T = 7 d at 40° C./75% RH
[11] = Conc. Fluralaner 1 μg/ml, hypochlorite 10 ppm, T = 7 d at 40° C./75% RH
[12] = Conc. Fluralaner 5 μg/ml, hypochlorite 0 ppm, T = 0
[13] = Conc. Fluralaner 5 μg/ml, hypochlorite 0 ppm, T = 7 d at 40° C./75% RH
[14] = Conc. Fluralaner 5 μg/ml, hypochlorite 0.5 ppm, T = 7 d at 40° C./75% RH
[15] = Conc. Fluralaner 5 μg/ml, hypochlorite 2 ppm, T = 7 d at 40° C./75% RH
[16] = Conc. Fluralaner 5 μg/ml, hypochlorite 5 ppm (tapw.), T = 7 d at 40° C./75% RH
[17] = Conc. Fluralaner 5 μg/ml, hypochlorite 5 ppm, T = 7 d at 40° C./75% RH
[18] = Conc. Fluralaner 5 μg/ml, hypochlorite 10 ppm, T = 7 d at 40° C./75% RH
[19] = Conc. Fluralaner 10 μg/ml, hypochlorite 0 ppm, T = 0
[20] = Conc. Fluralaner 10 μg/ml, hypochlorite 0 ppm, T = 7 d at 40° C./75% RH
[21] = Conc. Fluralaner 10 μg/ml, hypochlorite 0.5 ppm, T = 7 d at 40° C./75% RH
[22] = Conc. Fluralaner 10 μg/ml, hypochlorite 2 ppm, T = 7 d at 40° C./75% RH
[23] = Conc. Fluralaner 10 μg/ml, hypochlorite 5 ppm (tapw.), T = 7 d at 40° C./75% RH
[24] = Conc. Fluralaner 10 μg/ml, hypochlorite 5 ppm, T = 7 d at 40° C./75% RH
[25] = Conc. Fluralaner 10 μg/ml, hypochlorite 10 ppm, T = 7 d at 40° C./75% RH

Structure (SMILES): Cc1cc(C2=NOC(c3cc(Cl)cc(Cl)c3)(C(F)(F)F)C2)ccc1C(=O)NCC(=O)NCC(F)(F)F (centres unmarked) [Fluralaner]
- Residue levels in eggs [1]: far below the MRL value
- Duration of efficacy after first treatment administration ([2]; 0.25 mg/kg BW dose group (2 doses, 7 days apart)): up to 19 days
- Duration of efficacy after first treatment administration ([2]; 0.5 mg/kg BW dose group (2 doses, 7 days apart)): ≤ 22 days
- Duration of efficacy after first treatment administration ([2]; 1.0 mg/kg BW dose group (2 doses, 7 days apart)): ≤ 22 days
- Efficacy against O. sylviarum ([2]; 2 single doses of 0.25, 0.5, or 1 mg/kg BW, 7 days apart, oral): significant efficacy
- Reductions in mite vent counts, onset ([2]; all treated groups, beginning at day 1): statistically significant reductions
- Efficacy against Northern fowl mites (reduction in mite vent count) ([2]; all treated groups, for at least 19 days, untreated source birds in same pen): > 90%
- Fluralaner content in medicated drinking water; alpha-tocopherol as protector [3, 5]: 0.91 µg/mL
- Fluralaner content in medicated drinking water; no protector [3, 5]: 0.93 µg/mL
- Fluralaner content in medicated drinking water; alpha-tocopherol as protector [3, 6]: 0.89 µg/mL
- Fluralaner content in medicated drinking water; no protector [3, 6]: 0.92 µg/mL
- Fluralaner content in medicated drinking water; alpha-tocopherol as protector [3, 7]: 0.91 µg/mL
- Fluralaner content in medicated drinking water; no protector [3, 7]: 0.91 µg/mL
- Fluralaner content in medicated drinking water; alpha-tocopherol as protector [3, 8]: 0.92 µg/mL
- Fluralaner content in medicated drinking water; no protector [3, 8]: 0.91 µg/mL
- Fluralaner content in medicated drinking water; alpha-tocopherol as protector [3, 9]: 0.86 µg/mL
- Fluralaner content in medicated drinking water; no protector [3, 9]: 0.13 µg/mL
- Fluralaner content in medicated drinking water; alpha-tocopherol as protector [3, 10]: 0.89 µg/mL
- Fluralaner content in medicated drinking water; no protector [3, 10]: 0.29 µg/mL
- Fluralaner content in medicated drinking water; alpha-tocopherol as protector [3, 11]: 0.05 µg/mL
- Fluralaner content in medicated drinking water; no protector [3, 11]: <LoQ
- Fluralaner content in medicated drinking water; alpha-tocopherol as protector [3, 12]: 5.52 µg/mL
- Fluralaner content in medicated drinking water; no protector [3, 12]: 5.50 µg/mL
- Fluralaner content in medicated drinking water; alpha-tocopherol as protector [3, 13]: 5.45 µg/mL
- Fluralaner content in medicated drinking water; no protector [3, 13]: 5.51 µg/mL
- Fluralaner content in medicated drinking water; alpha-tocopherol as protector [3, 14]: 5.52 µg/mL
- Fluralaner content in medicated drinking water; no protector [3, 14]: 5.52 µg/mL
- Fluralaner content in medicated drinking water; alpha-tocopherol as protector [3, 15]: 5.52 µg/mL
- Fluralaner content in medicated drinking water; no protector [3, 15]: 5.50 µg/mL
- Fluralaner content in medicated drinking water; alpha-tocopherol as protector [3, 16]: 5.42 µg/mL
- Fluralaner content in medicated drinking water; no protector [3, 16]: 4.43 µg/mL
- Fluralaner content in medicated drinking water; alpha-tocopherol as protector [3, 17]: 5.49 µg/mL
- Fluralaner content in medicated drinking water; no protector [3, 17]: 5.31 µg/mL
- Fluralaner content in medicated drinking water; alpha-tocopherol as protector [3, 18]: 5.56 µg/mL
- Fluralaner content in medicated drinking water; no protector [3, 18]: 1.54 µg/mL
- Fluralaner content in medicated drinking water; alpha-tocopherol as protector [3, 19]: 10.14 µg/mL
- Fluralaner content in medicated drinking water; no protector [3, 19]: 10.10 µg/mL
- Fluralaner content in medicated drinking water; alpha-tocopherol as protector [3, 20]: 10.01 µg/mL
- Fluralaner content in medicated drinking water; no protector [3, 20]: 10.07 µg/mL
- Fluralaner content in medicated drinking water; alpha-tocopherol as protector [3, 21]: 10.10 µg/mL
- Fluralaner content in medicated drinking water; no protector [3, 21]: 10.03 µg/mL
- Fluralaner content in medicated drinking water; alpha-tocopherol as protector [3, 22]: 10.10 µg/mL
- Fluralaner content in medicated drinking water; no protector [3, 22]: 10.03 µg/mL
- Fluralaner content in medicated drinking water; alpha-tocopherol as protector [3, 23]: 9.94 µg/mL
- Fluralaner content in medicated drinking water; no protector [3, 23]: 8.69 µg/mL
- Fluralaner content in medicated drinking water; alpha-tocopherol as protector [3, 24]: 9.99 µg/mL
- Fluralaner content in medicated drinking water; no protector [3, 24]: 9.97 µg/mL
- Fluralaner content in medicated drinking water; alpha-tocopherol as protector [3, 25]: 10.05 µg/mL
- Fluralaner content in medicated drinking water; no protector [3, 25]: 5.05 µg/mL
- Level of Fluralaner in pharmaceutical composition on storage [4]: no significant reduction
